Patent publication US12338203B2 (TAISHO PHARMACEUTICAL CO., LTD., priority 2019, dated 2025)

Biological target: T1, human LPAR1 (Homo sapiens, UniProt Q92633)
T1 construct: expressed in transfected cells
Assay: Test Example 1: antagonism against response of LPA-induced increase in intracellular Ca2+ concentration in RH7777 cells stably expressing human LPAR1
Format: cell-based
Settings: RH7777 cells stably expressing human LPAR1; Fluo-4 fluorescence, FDSS6000; read-out: IC50 value (concentration producing 50% antagonism against response of LPA-induced increase in intracellular Ca2+ concentration) (converted)
Method: (1) Preparation of RH7777 cells stably expressing human LPAR1
The human LPAR1 expression vector was transfected into RH7777 cells to acquire human LPAR1 expressing cells.
(2) Test of antagonism against response of LPA-induced increase in intracellular Ca^2+ concentration
Cells stably expressing human LPAR1 were used for a test of antagonism against response of LPA-induced increase in intracellular Ca^2+ concentration.
The cells were seeded onto the Poly-D-Lysine 96 well black plate and incubated overnight. […] 50 μL of the Basal Buffer (1×HBSS, 20 mM HEPES, 2.5 mM Probenecid, 0.05% BSA, 0.25 mg/mL Amaranth, pH 7.4) containing the test compound was added thereto, followed by incubation at 37° C. for 30 minutes. In FDSS6000 (Hamamatsu Photonics K.K.), LPAs were added, and the change in intracellular Ca^2+ concentration was detected using the fluorescence value of a wavelength of 540 nm by an excitation wavelength of 480 nm as an indicator. […] The Rmax under […] without the test compound was used as the control value. The Rmax under Basal Buffer stimulation with no LPAs or test compounds was used as the basal value.
The percentage (%) of increase in intracellular Ca^2+ concentration was calculated by dividing the value obtained by subtracting the basal value from Rmax in the presence of LPAs and each concentration of the test compound by the value obtained by subtracting the basal value from the control value. The concentration of each test compound was plotted on the X axis and the percentage (%) of increase in intracellular Ca^2+ concentration was plotted on the Y axis, and the IC50 value was calculated by nonlinear regression using XLfit.

T1 sequence (Q92633 whole entry): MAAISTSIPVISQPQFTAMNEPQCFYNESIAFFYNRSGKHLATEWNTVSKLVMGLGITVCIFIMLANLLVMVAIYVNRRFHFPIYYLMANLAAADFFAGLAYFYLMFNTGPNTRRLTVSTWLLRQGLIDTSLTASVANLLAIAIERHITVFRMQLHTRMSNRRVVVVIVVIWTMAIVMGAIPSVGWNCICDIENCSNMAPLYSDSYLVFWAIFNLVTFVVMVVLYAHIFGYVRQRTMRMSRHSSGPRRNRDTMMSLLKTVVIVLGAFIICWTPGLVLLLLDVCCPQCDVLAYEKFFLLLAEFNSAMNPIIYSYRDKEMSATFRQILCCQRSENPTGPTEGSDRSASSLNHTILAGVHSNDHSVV

Compound	IC50 [nM]
CCOc1cc([C@@H](C)N(CCCCc2ccccc2)C(=O)N[C@]2(C(=O)O)C[C@H](OC)C2)cc(OCC)c1C(C)=O [Example 1-87, Cis-1-({[(1R)-1-(4-Acetyl-3,5-Diethoxyphenyl)Ethyl](4-Phenylbutyl) Carbamoyl}Amino)-3-Methoxycyclobutane-1-Carboxylic Acid]	1.37
CCOc1cc([C@@H](C)N(CCCCc2ccccc2)C(=O)NC2(C(=O)O)CC(OC)C2)cc(OCC)c1C1(O)CC1 (stereo partly shown) [Example 1-90]	9.18
CCOc1cc([C@@H](C)N(CCCCc2ccccc2)C(=O)NC2(C(=O)O)CC(OC)C2)cc(OCC)c1C (stereo partly shown) [Example 1-91]	1.99
CCOc1c(C(C)=O)ccc([C@@H](C)N(CCCCc2ccccc2)C(=O)NC2(C(=O)O)CC(OC)C2)c1C (stereo partly shown) [Example 1-93]	4
CCOc1c(C(C)=O)ccc([C@@H](C)N(CCCCc2ccccc2)C(=O)NC2(C(=O)O)CC(OC)C2)c1C (stereo partly shown) [Example 1-94]	11.8
CCOc1cc([C@@H](C)N(CCCCc2ccccc2)C(=O)NC2(C(=O)O)CC(OCC)C2)cc(OCC)c1C(C)=O (stereo partly shown) [Example 1-95]	3.09
CCOc1cc(C(C)N(CCCCc2ccccc2)C(=O)NC2(C(=O)O)CC(OCC)C2)cc(OCC)c1C(C)=O (stereo not shown) [Example 1-96]	2.11
CCOc1cc([C@@H](C)N(CCCCc2ccccc2)C(=O)NC2(C(=O)O)CC(OCC)C2)cc(OCC)c1C(C)=O (stereo partly shown) [Example 1-97]	3.94
CCOc1cc([C@@H](C)N(CCCCc2ccccc2)C(=O)NC2(C(=O)O)CC(OCC)C2)cc(OCC)c1C(C)O (stereo partly shown) [Example 1-98]	4.33
CCOc1cc([C@@H](C)N(CCCCc2ccccc2)C(=O)NC2(C(=O)O)CC(OCC)C2)cc(OCC)c1C(C)O (stereo partly shown) [Example 1-99]	2.58
CCOc1cc([C@@H](C)N(CCCCc2ccccc2)C(=O)NC2(C(=O)O)CC(OCC)C2)cc(OCC)c1C (stereo partly shown) [Example 1-100]	3.13
CCOc1cc(C(C)N(CCCCc2ccccc2)C(=O)NC2(C(=O)O)CC(OCC)C2)cc(OCC)c1C1CC1 (stereo not shown) [Example 1-101]	1.44
CCOc1c(C(C)=O)ccc([C@@H](C)N(CCCCc2ccccc2)C(=O)NC2(C(=O)O)CC(OCC)C2)c1C (stereo partly shown) [Example 1-102]	2.03
CCOc1c(C(C)=O)ccc([C@@H](C)N(CCCCc2ccccc2)C(=O)NC2(C(=O)O)CC(OCC)C2)c1C (stereo partly shown) [Example 1-103]	4.57
CCOc1c(C(C)(C)O)ccc([C@@H](C)N(CCCCc2ccccc2)C(=O)NC2(C(=O)O)CC(OCC)C2)c1C (stereo partly shown) [Example 1-104]	10.3
CCOc1cc([C@@H](C)N(CCCCc2ccccc2)C(=O)NC2(C(=O)O)CC(O)C2)cc(OCC)c1C (stereo partly shown) [Example 1-106]	8.72
CCOc1cc([C@@H](C)N(CCCCc2ccccc2)C(=O)NC2(C(=O)O)CC(N3CCCC3)C2)cc(OCC)c1C (stereo partly shown) [Example 1-108]	512
CCOc1cc([C@@H](C)N(CCCCc2ccccc2)C(=O)NC2(C(=O)O)CC(N3CCN(C)CC3)C2)cc(OCC)c1C (stereo partly shown) [Example 1-109]	312
CCOc1cc([C@@H](C)N(CCCCc2ccccc2)C(=O)NC2(C(=O)O)CC(N3CCOCC3)C2)cc(OCC)c1C (stereo partly shown) [Example 1-110]	20.2
CCOc1cc([C@@H](C)N(CCCCc2ccccc2)C(=O)NC2(C(=O)O)CC(=O)C2)cc(OCC)c1C [Example 1-111]	2.31
CCOc1cc(C(C)N(CCCCc2ccccc2)C(=O)NC2(C(=O)O)CCCC2)cc(OCC)c1C (stereo not shown) [Example 1-112]	18.7
CCOc1cc([C@@H](C)N(CCCCc2ccccc2)C(=O)NC2(C(=O)O)CCCC2)cc(OCC)c1C [Example 1-113]	4.09
CCOc1cc(C(C)N(CCCCc2ccccc2)C(=O)NC2(C(=O)O)CCCC2)cc(OC(C)C)c1C (stereo not shown) [Example 1-114]	128
COc1cc(C(C)N(CCCCc2ccccc2)C(=O)NC2(C(=O)O)CCCC2)cc(OC)c1C (stereo not shown) [Example 1-116]	57.4
COc1cc([C@@H](C)N(CCCCc2ccccc2)C(=O)NC2(C(=O)O)CCCC2)cc(OC)c1C [Example 1-117]	16.8
CCOc1cc([C@@H](C)N(CCCCc2ccccc2)C(=O)NC2(C(=O)O)CCCCC2)cc(OCC)c1C [Example 1-118]	42.8
CCOc1cc([C@@H](C)N(CCCCc2ccccc2)C(=O)NC2(C(=O)O)CCCCCC2)cc(OCC)c1C [Example 1-119]	53.6
CCOc1cc(C(C)N(CCCCc2ccccc2)C(=O)NC2(C(=O)O)CCC(C(=O)O)CC2)cc(OCC)c1C (stereo not shown) [Example 1-120]	1670

Compound	IC50 [nM]
CCOc1cc([C@@H](C)N(CCCCc2ccccc2)C(=O)NC2(C(=O)O)CC3(CCC3)C2)cc(OCC)c1C [Example 1-121]	9.23
CCOc1cc(C(C)N(CCCCc2ccccc2)C(=O)NC2(C(=O)O)Cc3ccccc3C2)cc(OCC)c1C (stereo not shown) [Example 1-122]	12.7
CCOc1cc([C@@H](C)N(CCCCc2ccccc2)C(=O)NC2(C(=O)O)Cc3ccccc3C2)cc(OCC)c1C [Example 1-123, 2-({[(1R)-1-(3,5-Diethoxy-4-Methylphenyl)Ethyl](4-Phenylbutyl) Carbamoyl}Amino)-2,3-Dihydro-1H-Indene-2-Carboxylic Acid]	12.7
CCOc1cc([C@H](C)N(CCCCc2ccccc2)C(=O)NC2(C(=O)O)Cc3ccccc3C2)cc(OCC)c1C [Example 1-124, 2-({[(1S)-1-(3,5-Diethoxy-4-Methylphenyl)Ethyl](4-Phenylbutyl) Carbamoyl}Amino)-2,3-Dihydro-1H-Indene-2-Carboxylic Acid]	237
CCOc1cc(C(C)N(CCCCc2ccccc2)C(=O)NC2CCC2C(=O)O)cc(OCC)c1C(C)=O (stereo not shown) [Example 1-125]	3.09
CCOc1cc([C@@H](C)N(CCCCc2ccccc2)C(=O)NC2CCC2C(=O)O)cc(OCC)c1C(C)=O (stereo partly shown) [Example 1-126]	3.13
CCOc1c(C(C)=O)ccc([C@@H](C)N(CCCCc2ccccc2)C(=O)NC2CCC2C(=O)O)c1C (stereo partly shown) [Example 1-127]	33.7
CCOc1cc(C(C)N(CCCCc2ccccc2)C(=O)NC2CC(C(=O)O)C2)cc(OCC)c1C(C)=O (stereo not shown) [Example 1-128]	6.38
CCOc1cc(C(C)N(CCCCc2ccccc2)C(=O)NC2CC(C(=O)O)C2)cc(OCC)c1C(C)=O (stereo not shown) [Example 1-129]	9.98
CCOc1cc([C@@H](C)N(CCCCc2ccccc2)C(=O)NC2CC(C(=O)O)C2)cc(OCC)c1C1CC1 (stereo partly shown) [Example 1-130]	6.48
CCOc1cc([C@@H](C)N(CCCCc2ccccc2)C(=O)NC2CCC[C@H]2C(=O)O)cc(OCC)c1C(C)=O (stereo partly shown) [Example 1-133]	1.21
CCOc1cc([C@@H](C)N(CCCCc2ccccc2)C(=O)NC2CCC[C@@H]2C(=O)O)cc(OCC)c1C(C)=O (stereo partly shown) [Example 1-134]	14.5
CCOc1cc([C@@H](C)N(CCCCc2ccccc2)C(=O)NC2CCCC2C(=O)O)cc(OCC)c1C(C)=O (stereo partly shown) [Example 1-135]	2.17
CCOc1cc(C(C)N(CCCCc2ccccc2)C(=O)NC2CCC[C@H]2C(=O)O)cc(OCC)c1C (stereo partly shown) [Example 1-136]	18.2
CCOc1cc(C(C)N(CCCCc2ccccc2)C(=O)NC2CCC[C@@H]2C(=O)O)cc(OCC)c1C (stereo partly shown) [Example 1-137]	102
CCOc1cc(C(C)N(CCCCc2ccccc2)C(=O)NC2CCC(C(=O)O)C2)cc(OCC)c1C(C)=O (stereo not shown) [Example 1-139]	3.09
CCOc1cc([C@@H](C)N(CCCCc2ccccc2)C(=O)NC2CCC(C(=O)O)C2)cc(OCC)c1C(C)=O (stereo partly shown) [Example 1-140]	65.9
CCOc1cc([C@@H](C)N(CCCCc2ccccc2)C(=O)NC2CCC(C(=O)O)C2)cc(OCC)c1C(C)=O (stereo partly shown) [Example 1-141]	42.9
CCOc1cc([C@@H](C)N(CCCCc2ccccc2)C(=O)NC2CCC(C(=O)O)C2)cc(OCC)c1C (stereo partly shown) [Example 1-142]	49.2
CCOc1cc(C(C)N(CCCCc2ccccc2)C(=O)NC2CCC(C(=O)O)CC2)cc(OCC)c1C (stereo not shown) [Example 1-143]	200
CCOc1cc([C@@H](C)N(CCCCc2ccccc2)C(=O)NCC2(C(=O)O)CC2)cc(OCC)c1C(C)=O [Example 1-144]	28.7
CCOc1cc([C@@H](C)N(CCCCc2ccccc2)C(=O)NC2(CC(=O)O)CC2)cc(OCC)c1C(C)=O [Example 1-145]	1.72
CCOc1cc(C(C)N(CCCCc2ccccc2)C(=O)NC2(CC(=O)O)CCCC2)cc(OCC)c1C (stereo not shown) [Example 1-146]	24.3
CCOc1cc(C(C)N(CCCCc2ccccc2)C(=O)NC2(CC(=O)O)Cc3ccccc3C2)cc(OCC)c1C (stereo not shown) [Example 1-147]	40.6
CCOc1cc(C(C)N(CCCCc2ccccc2)C(=O)NC2CC(CC(=O)O)C2)cc(OCC)c1C (stereo not shown) [Example 1-148]	25.5
CCOc1cc([C@@H](C)N(CCCCc2ccccc2)C(=O)NC2(C(=O)O)COC2)cc(OCC)c1C(C)=O [Example 1-149, 3-({[(1R)-1-(4-Acetyl-3,5-Diethoxyphenyl)Ethyl](4-Phenylbutyl) Carbamoyl}Amino) Oxetane-3-Carboxylic Acid]	2.24
CCOc1cc([C@@H](C)N(CCCCc2ccccc2)C(=O)NC2(C(=O)O)CCOC2)cc(OCC)c1C (stereo partly shown) [Example 1-150]	8
